{"source": "patent US20100152434A1", "about": "“Protein Kinase-binding Nucleosides and Associated Methods” (priority 2007, published 2010)", "assay_in_all_cases": "SignalChem radioisotope protein kinase assay", "type_in_all_cases": "biochemical", "details_in_all_cases": "5 μl of 100 μM stock solution in 25 μl", "key": {"[1]": {"target": "ABL2 (Homo sapiens, UniProt P42684)", "source_text": "(§1) The various protein kinase targets to be employed in the kinase profiling assay were cloned, expressed and purified in-house at SignalChem (Richmond, BC, Canada) using proprietary methods. Quality control testing is routinely performed on each of the SignalChem targets to ensure compliance to acceptable standards. Protein substrates employed in the target profiling process were synthesized internally. ^33P-ATP was purchased from PerkinElmer. All other materials were of standard grade. Compound 10 (FIG. 4) was supplied to SignalChem in a powder form. It was reconstituted in DMSO to form a stock solution which was then diluted with 10% DMSO to form a working stock solution (100 μM) that was then profiled against the various protein kinase targets. The assay conditions for the various protein kinase targets were optimized to yield acceptable enzymatic activity. In addition, the assays were optimized to give high signal-to-noise ratio.\n(§2) SignalChem uses a radioisotope assay format for profiling evaluation of protein kinase targets. Protein kinase assays were performed in triplicate at ambient temperature for 20-40 min (depending on the target) in a final volume of 25 μl according to the following assay reaction recipe: • Component 1: 5 μl of diluted active protein kinase target (˜10-40 nM final protein concentration in the assay) • Component 2: 5 μl of stock solution of substrate (1-5 μg of peptide or protein substrate) • Component 3: 5 μl of kinase assay buffer or protein kinase activator in kinase assay buffer • Component 4: 5 μl of Compound 10 (100 μM stock solution) or 10% DMSO • Component 5: 5 μl of 33P-ATP (25 μM stock solution, 0.8 μCi)\n(§3) The assay was initiated by the addition of ^33P-ATP and the reaction mixture incubated at ambient temperature for 20-40 minutes, depending on the protein kinase target. After the incubation period, the assay was terminated by spotting 10 μl of the reaction mixture onto a Millipore Multiscreen plate. The Millipore Multiscreen plate was washed 3 times for approximately 15 minutes each in a 1% phosphoric acid solution. The radioactivity on the P81 plate was counted in the presence of scintillation fluid in a Trilux scintillation counter. Blank control, which included all the assay components except the addition of the appropriate substrate (replaced with equal volume of assay dilution buffer), was set up for each protein kinase target. The corrected activity for each protein kinase target was determined by removing the blank control value."}, "[2]": {"target": "ABL1 (Homo sapiens, UniProt P00519)", "source_text": "as §1, §2, §3"}, "[3]": {"target": "ALK4 (Homo sapiens, UniProt P36896)", "source_text": "as §1, §2, §3"}, "[4]": {"target": "PDK1 (Homo sapiens, UniProt O15530)", "source_text": "as §1, §2, §3"}, "[5]": {"target": "BRAF (Homo sapiens, UniProt P15056)", "source_text": "as §1, §2, §3"}, "[6]": {"target": "MST4 (Homo sapiens, UniProt Q9P289)", "source_text": "as §1, §2, §3"}, "[7]": {"target": "AKT2 (Homo sapiens, UniProt P31751)", "source_text": "as §1, §2, §3"}, "[8]": {"target": "BRK (Homo sapiens, UniProt Q13882)", "source_text": "as §1, §2, §3"}, "[9]": {"target": "ERK1 (Homo sapiens, UniProt P27361)", "source_text": "as §1, §2, §3"}, "[10]": {"target": "FGR (Homo sapiens, UniProt P09769)", "sequence (P09769 whole entry, species assumed)": "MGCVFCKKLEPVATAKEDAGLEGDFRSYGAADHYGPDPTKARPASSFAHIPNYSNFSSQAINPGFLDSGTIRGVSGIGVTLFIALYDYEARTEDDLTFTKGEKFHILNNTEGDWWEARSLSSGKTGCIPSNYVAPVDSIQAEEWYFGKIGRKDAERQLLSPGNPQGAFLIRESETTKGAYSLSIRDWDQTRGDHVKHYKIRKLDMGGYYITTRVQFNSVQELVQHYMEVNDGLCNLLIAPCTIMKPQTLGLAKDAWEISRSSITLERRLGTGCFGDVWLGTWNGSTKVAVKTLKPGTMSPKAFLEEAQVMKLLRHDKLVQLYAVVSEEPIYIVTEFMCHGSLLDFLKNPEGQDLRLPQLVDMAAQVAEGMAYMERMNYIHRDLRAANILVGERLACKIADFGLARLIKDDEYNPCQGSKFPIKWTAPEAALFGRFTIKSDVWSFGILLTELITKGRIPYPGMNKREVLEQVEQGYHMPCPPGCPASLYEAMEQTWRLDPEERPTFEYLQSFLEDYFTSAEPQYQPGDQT", "source_text": "as §1, §2, §3"}, "[11]": {"target": "PIM2 (Homo sapiens, UniProt Q9P1W9)", "source_text": "as §1, §2, §3"}, "[12]": {"target": "MEK1 (Homo sapiens, UniProt Q02750)", "source_text": "as §1, §2, §3"}, "[13]": {"target": "AKT1 (Homo sapiens, UniProt P31749)", "sequence (P31749 whole entry, species assumed)": "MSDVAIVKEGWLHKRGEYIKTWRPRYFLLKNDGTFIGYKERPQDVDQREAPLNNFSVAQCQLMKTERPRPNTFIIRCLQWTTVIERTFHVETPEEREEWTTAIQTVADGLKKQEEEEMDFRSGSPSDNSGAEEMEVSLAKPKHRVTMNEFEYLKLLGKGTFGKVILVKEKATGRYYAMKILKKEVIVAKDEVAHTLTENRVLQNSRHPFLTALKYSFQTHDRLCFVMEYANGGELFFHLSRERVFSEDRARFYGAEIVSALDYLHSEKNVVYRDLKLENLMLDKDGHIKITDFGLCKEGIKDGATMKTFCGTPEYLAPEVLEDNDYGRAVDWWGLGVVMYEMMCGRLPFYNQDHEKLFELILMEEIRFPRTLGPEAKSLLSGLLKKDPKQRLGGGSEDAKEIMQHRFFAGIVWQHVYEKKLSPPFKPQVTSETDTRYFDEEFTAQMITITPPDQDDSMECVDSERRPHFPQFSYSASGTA", "source_text": "as §1, §2, §3"}, "[14]": {"target": "HER2 (Homo sapiens, UniProt P04626)", "sequence (P04626 23-1255, species assumed)": "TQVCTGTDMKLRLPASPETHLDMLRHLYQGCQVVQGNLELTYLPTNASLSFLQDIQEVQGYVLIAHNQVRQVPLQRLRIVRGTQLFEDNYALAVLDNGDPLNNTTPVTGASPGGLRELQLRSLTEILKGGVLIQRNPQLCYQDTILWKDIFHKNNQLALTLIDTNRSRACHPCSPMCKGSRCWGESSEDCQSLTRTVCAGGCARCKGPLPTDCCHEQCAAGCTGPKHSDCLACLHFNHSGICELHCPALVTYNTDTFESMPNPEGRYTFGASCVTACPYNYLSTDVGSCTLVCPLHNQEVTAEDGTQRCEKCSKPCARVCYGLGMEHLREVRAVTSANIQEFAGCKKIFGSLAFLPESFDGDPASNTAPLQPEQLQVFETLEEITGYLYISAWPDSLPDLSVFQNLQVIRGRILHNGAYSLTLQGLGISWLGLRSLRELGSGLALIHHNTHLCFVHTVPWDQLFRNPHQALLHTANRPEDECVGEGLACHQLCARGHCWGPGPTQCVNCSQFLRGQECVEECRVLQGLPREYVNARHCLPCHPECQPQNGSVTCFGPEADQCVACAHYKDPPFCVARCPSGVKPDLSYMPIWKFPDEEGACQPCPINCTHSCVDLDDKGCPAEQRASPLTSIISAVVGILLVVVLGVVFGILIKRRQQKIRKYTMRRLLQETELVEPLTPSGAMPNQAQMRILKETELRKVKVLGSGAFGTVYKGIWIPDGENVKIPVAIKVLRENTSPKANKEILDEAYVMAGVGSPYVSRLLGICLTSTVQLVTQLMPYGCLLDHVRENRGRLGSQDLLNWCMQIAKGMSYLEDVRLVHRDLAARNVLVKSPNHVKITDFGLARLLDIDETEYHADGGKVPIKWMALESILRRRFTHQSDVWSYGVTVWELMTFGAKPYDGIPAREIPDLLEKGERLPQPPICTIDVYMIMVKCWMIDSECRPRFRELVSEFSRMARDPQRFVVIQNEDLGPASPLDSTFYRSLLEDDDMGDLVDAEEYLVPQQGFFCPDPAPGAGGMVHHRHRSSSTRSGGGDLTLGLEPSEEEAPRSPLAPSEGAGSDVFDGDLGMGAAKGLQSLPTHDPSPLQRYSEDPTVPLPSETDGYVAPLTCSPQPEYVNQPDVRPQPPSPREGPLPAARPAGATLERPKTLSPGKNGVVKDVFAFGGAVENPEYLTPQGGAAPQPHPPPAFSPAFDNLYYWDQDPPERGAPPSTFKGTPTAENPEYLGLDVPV", "source_text": "as §1, §2, §3"}, "[15]": {"target": "PAK4 (Homo sapiens, UniProt O96013)", "source_text": "as §1, §2, §3"}, "[16]": {"target": "HCK (Homo sapiens, UniProt P08631)", "source_text": "as §1, §2, §3"}, "[17]": {"target": "KDR (Homo sapiens, UniProt P35968)", "source_text": "as §1, §2, §3"}, "[18]": {"target": "T1, PKCα (Homo sapiens, UniProt P17252)", "T1 construct": "purchased SignalChem", "source_text": "as §1, §2, §3"}, "[19]": {"target": "p38α (Homo sapiens, UniProt Q16539)", "source_text": "as §1, §2, §3"}, "[20]": {"target": "T2, SGK1 (Homo sapiens, UniProt O00141)", "T2 construct": "purchased SignalChem", "source_text": "as §1, §2, §3"}, "[21]": {"target": "p70S6K (Homo sapiens, UniProt P23443)", "source_text": "as §1, §2, §3"}, "[22]": {"target": "PDGFRα (Homo sapiens, UniProt P16234)", "sequence (P16234 24-1089, species assumed)": "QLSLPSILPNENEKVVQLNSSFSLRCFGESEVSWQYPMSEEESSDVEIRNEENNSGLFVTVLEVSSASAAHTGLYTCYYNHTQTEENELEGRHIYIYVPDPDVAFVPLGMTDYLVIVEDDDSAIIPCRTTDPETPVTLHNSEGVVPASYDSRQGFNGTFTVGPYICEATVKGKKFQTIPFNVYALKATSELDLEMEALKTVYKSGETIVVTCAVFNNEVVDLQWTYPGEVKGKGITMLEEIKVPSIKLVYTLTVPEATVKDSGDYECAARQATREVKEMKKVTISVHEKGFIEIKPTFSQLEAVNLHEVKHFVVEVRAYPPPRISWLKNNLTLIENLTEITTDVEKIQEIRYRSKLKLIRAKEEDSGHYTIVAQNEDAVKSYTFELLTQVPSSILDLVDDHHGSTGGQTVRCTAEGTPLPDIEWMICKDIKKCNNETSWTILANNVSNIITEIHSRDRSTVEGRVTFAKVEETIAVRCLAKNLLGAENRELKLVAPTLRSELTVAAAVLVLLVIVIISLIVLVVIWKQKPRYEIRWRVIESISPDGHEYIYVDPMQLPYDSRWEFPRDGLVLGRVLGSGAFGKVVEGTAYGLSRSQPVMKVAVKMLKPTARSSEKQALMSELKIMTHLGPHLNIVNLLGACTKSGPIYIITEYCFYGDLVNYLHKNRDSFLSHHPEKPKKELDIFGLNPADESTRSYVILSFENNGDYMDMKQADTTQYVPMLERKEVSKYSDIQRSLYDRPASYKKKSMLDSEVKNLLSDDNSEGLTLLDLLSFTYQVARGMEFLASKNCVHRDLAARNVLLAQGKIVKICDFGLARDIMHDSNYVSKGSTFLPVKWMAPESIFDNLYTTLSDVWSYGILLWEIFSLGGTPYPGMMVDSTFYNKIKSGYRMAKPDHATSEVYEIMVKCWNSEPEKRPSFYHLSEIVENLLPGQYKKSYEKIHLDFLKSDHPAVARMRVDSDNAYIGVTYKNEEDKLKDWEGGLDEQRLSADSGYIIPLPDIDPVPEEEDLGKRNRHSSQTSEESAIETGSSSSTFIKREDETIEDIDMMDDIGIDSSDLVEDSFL", "source_text": "as §1, §2, §3"}, "[23]": {"target": "T3, TRKA (Homo sapiens, UniProt P04629)", "T3 construct": "purchased SignalChem", "source_text": "as §1, §2, §3"}, "[24]": {"target": "FAK (Homo sapiens, UniProt Q05397)", "sequence (Q05397 whole entry, species assumed)": "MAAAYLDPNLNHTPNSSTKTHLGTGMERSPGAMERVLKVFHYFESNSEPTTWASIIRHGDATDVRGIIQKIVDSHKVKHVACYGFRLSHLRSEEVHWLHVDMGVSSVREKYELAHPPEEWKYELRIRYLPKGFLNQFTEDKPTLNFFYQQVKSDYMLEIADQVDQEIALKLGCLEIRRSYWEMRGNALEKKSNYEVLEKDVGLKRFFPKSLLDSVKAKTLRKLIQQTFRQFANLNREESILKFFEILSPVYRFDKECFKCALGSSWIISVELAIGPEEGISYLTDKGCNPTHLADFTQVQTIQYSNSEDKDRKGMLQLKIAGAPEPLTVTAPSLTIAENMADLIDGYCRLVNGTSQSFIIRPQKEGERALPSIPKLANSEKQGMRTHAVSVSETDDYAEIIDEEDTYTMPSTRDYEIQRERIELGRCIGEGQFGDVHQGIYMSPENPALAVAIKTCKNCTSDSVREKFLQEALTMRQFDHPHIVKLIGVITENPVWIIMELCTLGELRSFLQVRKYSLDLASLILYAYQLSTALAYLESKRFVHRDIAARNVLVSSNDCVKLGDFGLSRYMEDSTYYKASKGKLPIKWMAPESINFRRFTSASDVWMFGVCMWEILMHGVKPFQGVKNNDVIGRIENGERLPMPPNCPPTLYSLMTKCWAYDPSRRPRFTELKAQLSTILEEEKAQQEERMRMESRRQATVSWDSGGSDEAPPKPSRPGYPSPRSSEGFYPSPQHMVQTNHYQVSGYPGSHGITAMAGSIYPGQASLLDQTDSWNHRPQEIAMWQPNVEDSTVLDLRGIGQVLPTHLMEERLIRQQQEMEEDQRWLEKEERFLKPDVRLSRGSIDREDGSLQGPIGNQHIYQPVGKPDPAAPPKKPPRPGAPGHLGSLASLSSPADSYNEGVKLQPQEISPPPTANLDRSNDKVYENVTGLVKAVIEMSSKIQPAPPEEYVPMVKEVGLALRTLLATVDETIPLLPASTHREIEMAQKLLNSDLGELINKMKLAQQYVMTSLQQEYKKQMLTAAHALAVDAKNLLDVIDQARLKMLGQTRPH", "source_text": "as §1, §2, §3"}, "[25]": {"target": "AURORA B (Homo sapiens, UniProt Q96GD4)", "source_text": "as §1, §2, §3"}, "[26]": {"target": "T4, RSK3 (Homo sapiens, UniProt Q15349)", "T4 construct": "purchased SignalChem", "source_text": "as §1, §2, §3"}, "[27]": {"target": "PAK2 (Homo sapiens, UniProt Q13177)", "source_text": "as §1, §2, §3"}, "[28]": {"target": "MARK3 (Homo sapiens, UniProt P27448)", "source_text": "as §1, §2, §3"}, "[29]": {"target": "T5, SRC (Homo sapiens, UniProt P12931)", "T5 construct": "purchased SignalChem", "T5 sequence (P12931 whole entry, species assumed)": "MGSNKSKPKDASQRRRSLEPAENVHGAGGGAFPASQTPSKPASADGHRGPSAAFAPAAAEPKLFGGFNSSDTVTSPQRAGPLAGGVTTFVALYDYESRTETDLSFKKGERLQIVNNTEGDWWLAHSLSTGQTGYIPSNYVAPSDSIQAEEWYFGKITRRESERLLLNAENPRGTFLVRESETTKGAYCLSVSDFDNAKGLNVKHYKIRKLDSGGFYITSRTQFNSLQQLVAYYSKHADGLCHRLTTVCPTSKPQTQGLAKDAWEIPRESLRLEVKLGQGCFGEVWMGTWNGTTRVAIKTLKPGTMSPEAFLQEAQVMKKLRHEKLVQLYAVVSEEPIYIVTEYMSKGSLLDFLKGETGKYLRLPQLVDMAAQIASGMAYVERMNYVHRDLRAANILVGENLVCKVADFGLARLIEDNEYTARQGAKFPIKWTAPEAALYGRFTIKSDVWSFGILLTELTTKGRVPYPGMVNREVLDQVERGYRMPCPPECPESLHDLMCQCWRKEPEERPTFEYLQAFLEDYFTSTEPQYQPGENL", "source_text": "as §1, §2, §3"}, "[30]": {"target": "PAK7 (Homo sapiens, UniProt Q9P286)", "source_text": "as §1, §2, §3"}}}
{"compound": "CCOC(=O)C[C@@H]1C(O[Si](C)(C)C(C)(C)C)[C@H](n2cnc3c(NC(=O)Nc4ccccc4)ncnc32)O[C@@H]1CNC(=O)NC", "note": "(stereo partly drawn) [Compound 10]", "values": [{"measurement": "% Activity Change", "setting": "[1]", "value": 8, "unit": "%"}, {"measurement": "% Activity Change", "setting": "[2]", "value": 0, "unit": "%"}, {"measurement": "% Activity Change", "setting": "[3]", "value": 2, "unit": "%"}, {"measurement": "% Activity Change", "setting": "[4]", "value": 8, "unit": "%"}, {"measurement": "% Activity Change", "setting": "[5]", "value": 1, "unit": "%"}, {"measurement": "% Activity Change", "setting": "[6]", "value": 47, "unit": "%"}, {"measurement": "% Activity Change", "setting": "[7]", "value": 27, "unit": "%"}, {"measurement": "% Activity Change", "setting": "[8]", "value": 2, "unit": "%"}, {"measurement": "% Activity Change", "setting": "[9]", "value": 6, "unit": "%"}, {"measurement": "% Activity Change", "setting": "[10]", "value": 3, "unit": "%"}, {"measurement": "% Activity Change", "setting": "[11]", "value": 18, "unit": "%"}, {"measurement": "% Activity Change", "setting": "[12]", "value": 8, "unit": "%"}, {"measurement": "% Activity Change", "setting": "[13]", "value": 2, "unit": "%"}, {"measurement": "% Activity Change", "setting": "[14]", "value": 4, "unit": "%"}, {"measurement": "% Activity Change", "setting": "[15]", "value": "−20", "unit": "%"}, {"measurement": "% Activity Change", "setting": "[16]", "value": 18, "unit": "%"}, {"measurement": "% Activity Change", "setting": "[17]", "value": 2, "unit": "%"}, {"measurement": "% Activity Change", "setting": "[18]", "value": 36, "unit": "%"}, {"measurement": "% Activity Change", "setting": "[19]", "value": 9, "unit": "%"}, {"measurement": "% Activity Change", "setting": "[20]", "value": 36, "unit": "%"}, {"measurement": "% Activity Change", "setting": "[21]", "value": "−1", "unit": "%"}, {"measurement": "% Activity Change", "setting": "[22]", "value": "−2", "unit": "%"}, {"measurement": "% Activity Change", "setting": "[23]", "value": "−6", "unit": "%"}, {"measurement": "% Activity Change", "setting": "[24]", "value": "−3", "unit": "%"}, {"measurement": "% Activity Change", "setting": "[25]", "value": 4, "unit": "%"}, {"measurement": "% Activity Change", "setting": "[26]", "value": 10, "unit": "%"}, {"measurement": "% Activity Change", "setting": "[27]", "value": 16, "unit": "%"}, {"measurement": "% Activity Change", "setting": "[28]", "value": "−1", "unit": "%"}, {"measurement": "% Activity Change", "setting": "[29]", "value": "−2", "unit": "%"}, {"measurement": "% Activity Change", "setting": "[30]", "value": 21, "unit": "%"}]}
